According to publication PMC12518639, “Apomorphine is a novel necroptosis inhibitor targeting mixed lineage kinase domain-like protein oligomerization” (Cell Death Discovery, 2025):

Columns and labels:
[1] = target: T1, Nt-hMLKL^C86A/L89A/D94A (Homo sapiens, UniProt Q8NB16, C86A/D94A/L89A); assay: SPR binding to Nt-hMLKL triple mutant; conditions: CM5 chip
T1 construct: an N-terminal domain (Nt-hMLKL, amino acids 2–154, MW: 23 kDa) involved in oligomerization; His (N); made in house; host or cells: E. coli BL21
From the text: The hMLKL plasmid (RC213152, OriGene, Rockville, MD, USA), and recombinant Wt-hMLKL (ab241453, Abcam) and Wt-mMLKL (MBS1379843, MyBioSource, San Diego, CA, USA) proteins were purchased. Nt-hMLKL (2–154), Nt-mMLKL (1–180), and Ct-hMLKL (183–471) were generated using the pBT7-N-His vector. Nt-hMLKL^C86A, Nt-hMLKL^F148A, -hMLKL^C86A/L89A/D94A, and Nt-hMLKL^R145A/R146A/F148A/M150A were generated using the Site-directed Mutagenesis Kit (EZ004S, Enzynomics, S. Korea). These constructs were subcloned into pBT7-N-His and pET-15b plasmid vectors. E. coli BL21 cells transformed with the cloned expression vectors were cultured in LB medium and supplemented with 100 μg/mL ampicillin until an OD at 600 nm of 0.5–0.6 was reached. The cultures were induced by 1 mM IPTG (367-93-1, Sigma-Aldrich). The cells were lysed and centrifuged. The clear supernatants were subjected to Ni-NTA affinity chromatography (175018169, QIAGEN, Hilden, Germany). Plasmids encoding mMLKL (1–464)–gyrase fusion constructs were kindly provided by Prof. […]
The interactions of Wt-hMLKL, Wt-mMLKL, Nt-mMLKL, Nt, and Ct-hMLKL proteins with Re-APO or Ox-APO were detected through SPR analysis using Biacore™ T200 (Cytiva, Marlborough, MA, USA). […] Sensorgrams were recorded and analyzed in real-time using the control software in the BIAcore T200 system. All data were analyzed using the BIA evaluation software (Cytiva).

[2] = tested on: p-MLKL; assay: Western blot of phosphorylated MLKL in whole cell lysates; format: cell-based, human; conditions: 8 h
Experimental: To identify potential inhibitors of the necroptosis pathway targeting MLKL or the process of p-MLKL pore formation on the membrane, we screened a library of 2150 compounds, including FDA-approved drugs and those in phase 1–3 clinical trials, using THP-1-HMGB1-Lucia™ cells expressing the HMGB1-luciferase fusion protein. The cells were treated with a necroptosis-inducing mixture containing TNF-α, BV6, and Z-VAD-FMK (TBZ) in addition to the compound library (Fig. 1A). The supernatants were harvested to measure luciferase activities for necroptosis. The luciferase activities of cell supernatants treated with TBZ alone were considered as the maximum release (100%) of HMGB1-luciferase. NEC-1, a known RIP1 inhibitor used in both humans and mice, was used as a positive control. […] Next, we performed a propidium iodide (PI) uptake assay to exclude cytotoxic compounds using THP-1 cells. Then, we selected candidate molecules that were arbitrarily less than 30% of those treated with TBZ. […] Next, the inhibition levels of p-MLKL were tested to select MLKL-targeting molecules (Figs. 1C and S1A). Compounds that reduced p-MLKL levels to less than 30% of TBZ-treated controls were considered as potential inhibitors of MLKL phosphorylation. Conversely, compounds that maintained p-MLKL levels above 70% were selected because they are presumed to prevent the formation of pores in the plasma membrane by interfering with oligomerization.
The cells were harvested and lysed in 1× RIPA buffer (R4100-010, GenDEPOT, Katy, TX, USA) containing protease (P3100-001, GenDEPOT) and phosphatase (1862495, Thermo Fisher Scientific) inhibitors. WCLs were then centrifuged at 20,000×g for 30 min at 4 °C and subjected to non-reducing or reducing 8–12% SDS-PAGE gel electrophoresis. The membrane was blocked with 5% non-fat milk in TBS and probed with antibodies. Antibodies to hMLKL (14993S), mMLKL (97705S), phospho-hMLKL (Ser358) (91689S), phospho-mMLKL (Ser345) (37333S), phospho-hRIP1 (Ser166) (65746S), mRIP1 (3493S), phospho-mRIP1 (Ser321) (38662S), phospho-hRIP3 (Ser227) (93654), mRIP3 (95702S), p-mRIP3 (Thr231/Ser232) (91702S), and LDH (2012S) (Cell Signaling Technology, Danvers, MA, USA), and GAPDH (LF-PA0018, Abfrontier, S. Korea), hRIP1 (ab72139, Abcam, Cambridge, UK), hRIP3 (sc-135170, Santa Cruz Biotechnology, Dallas, TX, USA), HMGB1 (ab78923, Abcam), and LAMP1 (ab24170, Abcam) antibodies were used.
Fig. S1 Assessment of p-MLKL inhibition to identify MLKL-targeting molecules. (A) Quantification graph corresponding to Fig. 1C. […] Whole-cell lysates (WCLs) were collected and subjected to Western blot analysis under reducing conditions using antibodies against p-MLKL, MLKL, and GAPDH. The p-MLKL/MLKL ratio was quantified and compared to that of TBZ-treated cells. Data represent the mean of three independent experiments. (B) Quantification graph corresponding to Fig. 1D. […] Cytosolic and membrane fractions were collected and analyzed by Western blot under reducing conditions. The levels of p-MLKL and p-RIP1 were normalized to LDH (cytosolic marker) and LAMP1 (membrane marker), respectively. Quantified ratios were compared to those of TBZ-treated cells (n = 3 independent experiments).

[3] = tested on: THP-1 cells; assay: Released HMGB1 in supernatant of TBZ-treated cells; format: cell-based, human; conditions: TBZ-treated THP-1, different concentrations, 8 h
Experimental: TBZ-treated cell supernatants were harvested and centrifuged using Amicon ultra centrifugal filters 10 kDa (UFC501096, Millipore, Billerica, MA, USA) at 4000×g for 1 h. The concentrated supernatants were analyzed using SDS-PAGE to assess released HMGB1 levels.

T1 sequence (Q8NB16 2-154 C86A/L89A/D94A): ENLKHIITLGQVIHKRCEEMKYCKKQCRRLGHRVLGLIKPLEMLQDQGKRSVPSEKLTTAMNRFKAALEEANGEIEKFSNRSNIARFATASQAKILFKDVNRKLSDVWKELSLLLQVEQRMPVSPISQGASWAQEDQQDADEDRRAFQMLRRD

CN1CCc2cccc3c4c(cc1c23)C=CC(=O)C4=O [Ox-APO]
binding in SPR [1]: no binding

CN1CCc2cccc3c2[C@@H]1Cc1ccc(O)c(O)c1-3 [S62, (6aS)-6-methyl-5,6,6a,7-tetrahydro-4H-dibenzo[de,g]quinoline-10,11-diol]
activity at 20 µM ([2]; Homo sapiens, THP-1, TBZ and 20 μM compound, whole cell lysates, read-out: p-MLKL/MLKL ratio relative to TBZ-treated cells (% Value)): 100%
effect on p-MLKL, p-RIP3 and p-RIP1 in whole cell lysates ([2]; THP-1, TBZ, 20 μM): little to no effect
HMGB1 release [3]: dose-dependently decreased
